Laboratory results: patent publication US10851073B2, “Protein tyrosine phosphatase inhibitors and methods of use thereof” (Calico Life Sciences LLC, priority 2019, dated 2020)

Columns and labels:
[1] = biological target: T1, His tagged full-length PTPN1 protein (Homo sapiens, UniProt P18031); assay: Mobility shift assay (MSA) used to determine potency of PTPN1 inhibitors; format: biochemical; conditions: enzyme 0.5 nM, substrate 2 μM
T1 construct: made in house
T1 sequence (P18031 with tags, fused parts or gaps): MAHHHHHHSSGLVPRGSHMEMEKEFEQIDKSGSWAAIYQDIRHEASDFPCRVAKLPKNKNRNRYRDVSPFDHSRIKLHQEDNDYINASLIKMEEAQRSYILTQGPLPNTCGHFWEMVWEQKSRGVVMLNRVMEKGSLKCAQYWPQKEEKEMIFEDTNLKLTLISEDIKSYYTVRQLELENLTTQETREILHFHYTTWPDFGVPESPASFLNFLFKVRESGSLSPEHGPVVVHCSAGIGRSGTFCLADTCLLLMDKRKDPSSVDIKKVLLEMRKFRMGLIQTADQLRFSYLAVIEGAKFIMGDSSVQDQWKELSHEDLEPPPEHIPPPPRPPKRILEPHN
How it was run: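 Full-length His-tagged human PTPN1 (0.5 nM) was preincubated 10 min at room temperature with compound (12-point, 1:3 dilution) in HEPES pH 7.5 buffer with EGTA, EDTA, Tween 20 and DTT. A 2 μM fluorescent phospho-insulin receptor peptide was then added for 10 min before quench. Mobility-shift % conversion gave % inhibition and IC50.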

[2] = biological target: T2, His tagged PTPN2 (TC45) protein (Homo sapiens, UniProt P17706); assay: Mobility shift assay used to determine potency of PTPN2 inhibitors; format: biochemical; conditions: enzyme 0.5 nM, substrate 2 μM; read-out: PTPN2 MSA IC50
T2 construct: made in house
T2 sequence (P17706 with tags, fused parts or gaps isoform P17706-2): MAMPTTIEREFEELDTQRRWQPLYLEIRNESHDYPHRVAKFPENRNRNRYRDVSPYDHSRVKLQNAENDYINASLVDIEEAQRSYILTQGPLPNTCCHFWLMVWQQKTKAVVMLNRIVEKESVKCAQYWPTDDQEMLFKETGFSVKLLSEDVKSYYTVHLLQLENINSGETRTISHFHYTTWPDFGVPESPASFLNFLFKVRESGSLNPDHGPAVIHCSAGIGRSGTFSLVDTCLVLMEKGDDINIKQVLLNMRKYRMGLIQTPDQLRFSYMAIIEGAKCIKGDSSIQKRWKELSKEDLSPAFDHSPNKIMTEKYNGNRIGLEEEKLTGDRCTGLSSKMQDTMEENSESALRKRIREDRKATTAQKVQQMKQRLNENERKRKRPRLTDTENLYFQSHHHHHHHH
How it was run: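 Enzyme (0.5 nM) preincubated with compound (12-point, 1:3 dilution) 10 min at room temperature in 50 mM HEPES pH 7.5, 1 mM EGTA, 10 mM EDTA, 0.01% Tween 20, 2 mM DTT; OG488-labelled phospho-insulin-receptor peptide substrate (2 μM) added for 10 min, then quenched. Microfluidic mobility shift (ex 488/em 530 nm) gave % conversion; IC50 from % inhibition.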

[3] = system: B16F10 mouse melanoma cells; assay: B16F10 IFNγ-induced cellular growth inhibition assay; format: cell-based; conditions: B16-F10, with 0.5 ng/mL IFNγ, read-out: B16F10 GI IC50
How it was run: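 B16F10 cells grown in DMEM+10% FBS, with or without 0.5 ng/mL final mouse IFNγ, and dosed in triplicate at 100 μM to 0.001 μM final (0.1% DMSO). Confluence imaged every 6 h for 5 days; percent growth inhibition versus DMSO/with-IFNγ control taken once DMSO/no-IFNγ wells exceeded 95% confluence, giving IC50.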

## C[Si](C)(O)CCCNC1CCc2cc(O)c(N3CC(=O)NS3(=O)=O)c(F)c2C1 (stereo not drawn) [Compound 190, 5-[1-fluoro-3-hydroxy-7-({3-[hydroxy(dimethyl)silyl]propyl}amino)-5,6,7,8-tetrahydronaphthalen-2-yl]-1λ^6,2,5-thiadiazolidine-1,1,3-trione]
[1]
  IC50: 10 to 100 nM
[2]
  IC50: 1 to 10 nM
[3]
  IC50: 1000 to 10000 nM

## CC(C)(C#N)CCNC1CCc2cc(O)c(N3CC(=O)NS3(=O)=O)c(F)c2C1 (stereo not drawn) [Compound 150, 4-{[8-fluoro-6-hydroxy-7-(1,1,4-trioxo-1λ^6,2,5-thiadiazolidin-2-yl)-1,2,3,4-tetrahydronaphthalen-2-yl]amino}-2,2-dimethylbutanenitrile]
[1]
  IC50: 1 to 10 nM
[2]
  IC50: 1 to 10 nM
[3]
  IC50: 1000 to 10000 nM

## O=C1CN(c2c(O)cc3c(c2F)CC(NCCC(F)F)CC3)S(=O)(=O)N1 (stereo not drawn) [Compound 223, 5-{7-[(3,3-difluoropropyl)amino]-1-fluoro-3-hydroxy-5,6,7,8-tetrahydronaphthalen-2-yl}-1λ^6,2,5-thiadiazolidine-1,1,3-trione]
[1]
  IC50: 1 to 10 nM
[2]
  IC50: 10 to 100 nM
[3]
  IC50: < 1000 nM

## O=C1CN(c2c(O)cc3c(c2F)CC(NCC(F)(F)c2ccccc2)CC3)S(=O)(=O)N1 (stereo not drawn) [Compound 125, 5-{7-[(2,2-difluoro-2-phenylethyl)amino]-1-fluoro-3-hydroxy-5,6,7,8-tetrahydronaphthalen-2-yl}-1λ^6,2,5-thiadiazolidine-1,1,3-trione]
[1]
  IC50: 10 to 100 nM
[2]
  IC50: 1 to 10 nM
[3]
  IC50: 10000 to 100000 nM

## O=C1CN(c2c(O)cc3c(c2F)CC(NCCC2CCC2)CC3)S(=O)(=O)N1 (stereo not drawn) [Compound 185, 5-{7-[(2-cyclobutylethyl)amino]-1-fluoro-3-hydroxy-5,6,7,8-tetrahydronaphthalen-2-yl}-1λ^6,2,5-thiadiazolidine-1,1,3-trione]
[1]
  IC50: 1 to 10 nM
[2]
  IC50: 1 to 10 nM
[3]
  IC50: < 1000 nM

## O=C1CN(c2c(O)cc3c(c2F)C[C@@H]([C@H]2CCN(S(=O)(=O)C4CC4)C2)CC3)S(=O)(=O)N1 (single isomer, unassigned) [Compound 139, 5-{(7RS)-7-[(3SR)-1-(cyclopropanesulfonyl)pyrrolidin-3-yl]-1-fluoro-3-hydroxy-5,6,7,8-tetrahydronaphthalen-2-yl}-1λ^6,2,5-thiadiazolidine-1,1,3-trione]
[1]
  IC50: 10 to 100 nM
[2]
  IC50: 1 to 10 nM
[3]
  IC50: 10000 to 100000 nM

## CC(C)CCNC1CCc2cc(O)c(N3CC(=O)NS3(=O)=O)c(F)c2C1 (stereo not drawn) [Compound 102, 5-{1-fluoro-3-hydroxy-7-[(3-methylbutyl)amino]-5,6,7,8-tetrahydronaphthalen-2-yl}-1λ^6,2,5-thiadiazolidine-1,1,3-trione]
[1]
  IC50: 1 to 10 nM
[2]
  IC50: < 1 nM
[3]
  IC50: < 1000 nM

## O=C1CN(c2c(O)cc3c(c2F)CC(NCCC(F)(F)F)CC3)S(=O)(=O)N1 (stereo not drawn) [Compound 116, 5-{1-fluoro-3-hydroxy-7-[(3,3,3-trifluoropropyl)amino]-5,6,7,8-tetrahydronaphthalen-2-yl}-1λ^6,2,5-thiadiazolidine-1,1,3-trione]
[1]
  IC50: 10 to 100 nM
[2]
  IC50: 10 to 100 nM
[3]
  IC50: 1000 to 10000 nM

## CCC(C)CCN[C@@H]1CCc2cc(O)c(N3CC(=O)NS3(=O)=O)c(F)c2C1 (stereo partly drawn) [Compound 203, 5-{(7R)-1-fluoro-3-hydroxy-7-[(3-methylpentyl)amino]-5,6,7,8-tetrahydronaphthalen-2-yl}-1λ^6,2,5-thiadiazolidine-1,1,3-trione]
[1]
  IC50: 1 to 10 nM
[2]
  IC50: < 1 nM
[3]
  IC50: < 1000 nM

## O=C1CN(c2c(O)cc3c(c2F)CC(OCC2CC(F)(F)C2)CC3)S(=O)(=O)N1 (stereo not drawn) [Compound 119, 5-{7-[(3,3-difluorocyclobutyl)methoxy]-1-fluoro-3-hydroxy-5,6,7,8-tetrahydronaphthalen-2-yl}-1λ^6,2,5-thiadiazolidine-1,1,3-trione]
[1]
  IC50: 1 to 10 nM
[2]
  IC50: 1 to 10 nM
[3]
  IC50: 1000 to 10000 nM

## O=C1CN(c2c(O)cc3c(c2F)CC(NCCC2CCCCC2)CC3)S(=O)(=O)N1 (stereo not drawn) [Compound 173, 5-{7-[(2-cyclohexylethyl)amino]-1-fluoro-3-hydroxy-5,6,7,8-tetrahydronaphthalen-2-yl}-1λ^6,2,5-thiadiazolidine-1,1,3-trione]
[1]
  IC50: 1 to 10 nM
[2]
  IC50: 1 to 10 nM
[3]
  IC50: < 1000 nM

## COC(C)(C)CCNC1CCc2cc(O)c(N3CC(=O)NS3(=O)=O)c(F)c2C1 (stereo not drawn) [Compound 122, 5-{1-fluoro-3-hydroxy-7-[(3-methoxy-3-methylbutyl)amino]-5,6,7,8-tetrahydronaphthalen-2-yl}-1λ^6,2,5-thiadiazolidine-1,1,3-trione]
[1]
  IC50: 10 to 100 nM
[2]
  IC50: 1 to 10 nM
[3]
  IC50: 1000 to 10000 nM

## O=C1CN(c2c(O)cc3c(c2F)CC(N[C@H]2C[C@@H](OC(F)(F)F)C2)CC3)S(=O)(=O)N1 (stereo partly drawn) [Compound 235, 5-(1-fluoro-3-hydroxy-7-{[(1s,3s)-3-(trifluoromethoxy)cyclobutyl]amino}-5,6,7,8-tetrahydronaphthalen-2-yl)-1λ^6,2,5-thiadiazolidine-1,1,3-trione]
[1]
  IC50: 10 to 100 nM
[2]
  IC50: 10 to 100 nM
[3]
  IC50: 1000 to 10000 nM

## O=C1CN(c2c(O)cc3c(c2F)CC(NCCC2CCCC2)CC3)S(=O)(=O)N1 (stereo not drawn) [Compound 178, 5-{7-[(2-cyclopentylethyl)amino]-1-fluoro-3-hydroxy-5,6,7,8-tetrahydronaphthalen-2-yl}-1λ^6,2,5-thiadiazolidine-1,1,3-trione]
[1]
  IC50: 1 to 10 nM
[2]
  IC50: < 1 nM
[3]
  IC50: < 1000 nM

## O=C1CN(c2c(O)cc3c(c2F)CC(NCCC2(C(F)(F)F)CC2)CC3)S(=O)(=O)N1 (stereo not drawn) [Compound 124, 5-[1-fluoro-3-hydroxy-7-({2-[1-(trifluoromethyl)cyclopropyl]ethyl}amino)-5,6,7,8-tetrahydronaphthalen-2-yl]-1λ^6,2,5-thiadiazolidine-1,1,3-trione]
[1]
  IC50: 1 to 10 nM
[2]
  IC50: 1 to 10 nM
[3]
  IC50: < 1000 nM

## CC(C)CCN(C)C1CCc2cc(O)c(N3CC(=O)NS3(=O)=O)c(F)c2C1 (stereo not drawn) [Compound 128, 5-{1-fluoro-3-hydroxy-7-[methyl(3-methylbutyl)amino]-5,6,7,8-tetrahydronaphthalen-2-yl}-1λ^6,2,5-thiadiazolidine-1,1,3-trione]
[1]
  IC50: 1 to 10 nM
[2]
  IC50: 1 to 10 nM
[3]
  IC50: 1000 to 10000 nM

## CC(C)CCN(CCC(C)C)CC1Cc2cc(O)c(N3CC(=O)NS3(=O)=O)c(F)c2C1 (stereo not drawn) [Compound 269, 5-(2-{[bis(3-methylbutyl)amino]methyl}-4-fluoro-6-hydroxy-2,3-dihydro-1H-inden-5-yl)-1λ^6,2,5-thiadiazolidine-1,1,3-trione]
[1]
  IC50: 1 to 10 nM
[2]
  IC50: 1 to 10 nM
[3]
  IC50: 10000 to 100000 nM

## CC(C)CCCNC1CCc2cc(O)c(N3CC(=O)NS3(=O)=O)c(F)c2C1 (stereo not drawn) [Compound 129, 5-{1-fluoro-3-hydroxy-7-[(4-methylpentyl)amino]-5,6,7,8-tetrahydronaphthalen-2-yl}-1λ^6,2,5-thiadiazolidine-1,1,3-trione]
[1]
  IC50: 1 to 10 nM
[2]
  IC50: 1 to 10 nM
[3]
  IC50: < 1000 nM

## O=C1CN(c2c(O)cc3c(c2F)CC(NCC[C@H]2C[C@@H](OC(F)(F)F)C2)CC3)S(=O)(=O)N1 (stereo partly drawn) [Compound 234, 5-[1-fluoro-3-hydroxy-7-({2-[(1s,3r)-3-(trifluoromethoxy)cyclobutyl]ethyl}amino)-5,6,7,8-tetrahydronaphthalen-2-yl]-1λ^6,2,5-thiadiazolidine-1,1,3-trione]
[1]
  IC50: 1 to 10 nM
[2]
  IC50: 10 to 100 nM
[3]
  IC50: 1000 to 10000 nM

## CC(C)(C)CCNC1CCc2cc(O)c(N3CC(=O)NS3(=O)=O)c(F)c2C1 (stereo not drawn) [Compound 174, 5-{7-[(3,3-dimethylbutyl)amino]-1-fluoro-3-hydroxy-5,6,7,8-tetrahydronaphthalen-2-yl}-1λ^6,2,5-thiadiazolidine-1,1,3-trione]
[1]
  IC50: 1 to 10 nM
[2]
  IC50: 1 to 10 nM
[3]
  IC50: < 1000 nM

## CO[C@@H]1CCc2cc(O)c(N3CC(=O)NS3(=O)=O)c(F)c2C1 (single isomer, unassigned) [Compound 104]
[1]
  IC50: 10 to 100 nM
[2]
  IC50: 10 to 100 nM
[3]
  IC50: 10000 to 100000 nM

## CC(C)CCNC[C@H]1Cc2cc(O)c(N3CC(=O)NS3(=O)=O)c(F)c2C1 (single isomer, unassigned) [Compound 292]
[1]
  IC50: 10 to 100 nM
[2]
  IC50: 10 to 100 nM
[3]
  IC50: 1000 to 10000 nM
